Results: patent US20230365546A1, “5-SUBSTITUTED INDOLE 3-AMIDE DERIVATIVES, PREPARATION METHOD AND USE THEREOF” (ORIGIANT PHARMACEUTICAL CO., LTD, priority 2020, published 2023)

Experiments:
HT-29 cells = assay: Protection against programmed necrosis of HT-29 cells (TNF α/Smac mimetic/Z-VAD-FMK, CCK8); format: cell-based; conditions: Homo sapiens, TNF α/Smac mimetic/Z-VAD-FMK induced 24 h, CCK8, read-out: HT-29 (EC50)
Experimental: In vitro protection against programmed necrosis of HT-29 cells was conducted by ourselves.
DMEM medium was purchased from Gibco Inc., penicillin and streptomycin were purchased from HyClone Inc., TNF α was purchased from PeproTech Inc., Smac mimetic and Z-VAD-FMK were purchased from Selleck Inc., CCK8 was purchased from Medchem Express Inc.
HT-29 cells (colon cancer cells) were cultured in DMEM+10% FBS+Penicillin/Streptomycin medium. During the experiments, HT-29 cells in logarithmic growth phase were harvested, seeded in a 96-well plate at specific numbers per well (typically 8×10^3 cells/well of adherent cells) and cultured overnight in a 37° C., 5% CO2 cell culture incubator. The next day, the compounds to be tested were diluted with culture medium to the corresponding concentrations and added into the corresponding wells of a 96-well plate, with 3 replicate wells for each sample, and a Vehicle control group and a blank Control group containing only culture medium were set at the same time. […] The absorbance was measured at 495 nm wavelength using a microplate reader, and the protection rate of the drug on the cells necrosis was calculated according to the following formula:
Protection rate of cell necrosis=[(X−C0)/(C−C0)]×100%
Wherein, C, C0, and X represent the mean absorbance values of the Vehicle control group, Blank control group and Drug treatment group, respectively.

RIPK1 = RIPK1 (Homo sapiens (Human), UniProt Q13546); assay: In vitro kinase assay (Eurofins Kinase Profiler), IC50; format: biochemical; conditions: 0.001-10 μM, read-out: RIPK 1 (IC50)
Chain of RIPK1 (Q13546 whole entry): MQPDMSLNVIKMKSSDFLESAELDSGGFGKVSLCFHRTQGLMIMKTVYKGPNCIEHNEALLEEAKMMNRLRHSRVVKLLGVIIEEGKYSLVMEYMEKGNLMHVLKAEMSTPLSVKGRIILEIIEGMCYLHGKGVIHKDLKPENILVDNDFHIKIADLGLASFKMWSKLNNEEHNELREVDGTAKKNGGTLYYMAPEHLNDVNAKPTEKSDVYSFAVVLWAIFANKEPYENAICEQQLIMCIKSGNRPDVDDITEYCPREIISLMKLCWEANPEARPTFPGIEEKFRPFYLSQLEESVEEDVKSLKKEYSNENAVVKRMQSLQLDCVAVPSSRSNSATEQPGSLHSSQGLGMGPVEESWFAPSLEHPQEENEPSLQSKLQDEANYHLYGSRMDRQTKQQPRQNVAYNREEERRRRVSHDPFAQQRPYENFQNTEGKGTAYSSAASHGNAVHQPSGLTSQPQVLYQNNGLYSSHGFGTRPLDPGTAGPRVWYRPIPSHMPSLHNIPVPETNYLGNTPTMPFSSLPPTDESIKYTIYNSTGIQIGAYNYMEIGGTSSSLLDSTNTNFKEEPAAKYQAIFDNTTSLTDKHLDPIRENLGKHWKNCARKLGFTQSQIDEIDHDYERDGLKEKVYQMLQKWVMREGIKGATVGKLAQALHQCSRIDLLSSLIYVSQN
Experimental: In vitro kinase assays were conducted using Kinase Profiler services provided by Eurofins. The experimental method was as follows: the small molecule compound to be tested (0.001-10 μM), the protein kinase to be tested were incubated with a buffer containing substrate, 10 mM magnesium acetate, and [γ-^33P-ATP], the reaction was started by adding Mg\TPmix, after incubation for a period of time at room temperature, a 3% phosphate solution was added to the buffer to stop the reaction. Subsequently, 10 μL of the reaction mixture was quantitatively pipetted onto P30 filter paper, which was washed three times with 75 mM phosphate solution and then once with methanol. The P30 filter paper was air-dried and scintillation fluid was added for scintillation counting.

| Compound | IC50 (RIPK1) | EC50 (HT-29 cells) |
| --- | --- | --- |
| O=C(NCc1ccc(F)c(F)c1)c1c[nH]c2ccc(-c3ccc4nc(NC(=O)C5CC5)sc4c3)cc12 [Compound 2] | 10 to 100 nM | 100 to 1000 nM |
| O=C(NCc1cc(F)cc(F)c1)c1c[nH]c2ccc(-c3ccc4nc(NC(=O)C5CC5)sc4c3)cc12 [Compound 3] | 10 to 100 nM | 10 to 100 nM |
| O=C(NCc1cccc(F)c1)c1c[nH]c2ccc(-c3ccc4nc(NC(=O)C5CC5)sc4c3)cc12 [Compound 4] | 10 to 100 nM | 10 to 100 nM |
| O=C(NCc1cc(C(F)(F)F)cc(C(F)(F)F)c1)c1c[nH]c2ccc(-c3ccc4nc(NC(=O)C5CC5)sc4c3)cc12 [Compound 5] | 100 to 1000 nM | ≥ 1000 nM |
| O=C(NCc1ccc(F)cc1)c1c[nH]c2ccc(-c3ccc4nc(NC(=O)C5CC5)sc4c3)cc12 [Compound 6] | 100 to 1000 nM | 10 to 100 nM |
| N#Cc1ccc(CNC(=O)c2c[nH]c3ccc(-c4ccc5nc(NC(=O)C6CC6)sc5c4)cc23)cc1 [Compound 7] | 10 to 100 nM | 10 to 100 nM |
| O=C(NCc1cccc(C(F)(F)F)c1)c1c[nH]c2ccc(-c3ccc4nc(NC(=O)C5CC5)sc4c3)cc12 [Compound 8] | 10 to 100 nM | 1 to 10 nM |
| O=C(NCc1ccc(F)cc1F)c1c[nH]c2ccc(-c3ccc4nc(NC(=O)C5CC5)sc4c3)cc12 [Compound 9] | 10 to 100 nM | 1 to 10 nM |
| O=C(NCc1cccc([N+](=O)[O-])c1)c1c[nH]c2ccc(-c3ccc4nc(NC(=O)C5CC5)sc4c3)cc12 [Compound 10] | 100 to 1000 nM | 100 to 1000 nM |
| COc1cc(CNC(=O)c2c[nH]c3ccc(-c4ccc5nc(NC(=O)C6CC6)sc5c4)cc23)cc(OC)c1 [Compound 11] | 100 to 1000 nM | ≥ 1000 nM |
| Cc1ccc(CNC(=O)c2c[nH]c3ccc(-c4ccc5nc(NC(=O)C6CC6)sc5c4)cc23)cc1 [Compound 13] | 10 to 100 nM | 1 to 10 nM |
| O=C(NCc1cccc2ccccc12)c1c[nH]c2ccc(-c3ccc4nc(NC(=O)C5CC5)sc4c3)cc12 [Compound 14] | ≥ 1000 nM | ≥ 1000 nM |
| O=C(NCc1ccc(C(F)(F)F)cc1)c1c[nH]c2ccc(-c3ccc4nc(NC(=O)C5CC5)sc4c3)cc12 [Compound 16] | 10 to 100 nM | 10 to 100 nM |
| O=C(NCc1ccco1)c1c[nH]c2ccc(-c3ccc4nc(NC(=O)C5CC5)sc4c3)cc12 [Compound 17] | 10 to 100 nM | 10 to 100 nM |
| O=C(NCc1cccs1)c1c[nH]c2ccc(-c3ccc4nc(NC(=O)C5CC5)sc4c3)cc12 [Compound 18] | 10 to 100 nM | 1 to 10 nM |
| O=C(NCc1cccc(OC(F)(F)F)c1)c1c[nH]c2ccc(-c3ccc4nc(NC(=O)C5CC5)sc4c3)cc12 [Compound 19] | 10 to 100 nM | 1 to 10 nM |

| Compound | IC50 (RIPK1) | EC50 (HT-29 cells) |
| --- | --- | --- |
| O=C(NCc1ccncc1)c1c[nH]c2ccc(-c3ccc4nc(NC(=O)C5CC5)sc4c3)cc12 [Compound 20] | ≥ 1000 nM | ≥ 1000 nM |
| O=C(NCc1ccccc1F)c1c[nH]c2ccc(-c3ccc4nc(NC(=O)C5CC5)sc4c3)cc12 [Compound 21] | 10 to 100 nM | 1 to 10 nM |
| O=C(NCc1cccc(Cl)c1)c1c[nH]c2ccc(-c3ccc4nc(NC(=O)C5CC5)sc4c3)cc12 [Compound 22] | 10 to 100 nM | 1 to 10 nM |
| O=C(NCc1ccccc1C(F)(F)F)c1c[nH]c2ccc(-c3ccc4nc(NC(=O)C5CC5)sc4c3)cc12 [Compound 24] | 100 to 1000 nM | 10 to 100 nM |
| O=C(NCc1cc(F)ccc1F)c1c[nH]c2ccc(-c3ccc4nc(NC(=O)C5CC5)sc4c3)cc12 [Compound 25] | 10 to 100 nM | < 1 nM |
| COc1ccc(CNC(=O)c2c[nH]c3ccc(-c4ccc5nc(NC(=O)C6CC6)sc5c4)cc23)cc1OC [Compound 26] | 100 to 1000 nM | ≥ 1000 nM |
| O=C(NCc1ccccc1)c1c[nH]c2ccc(-c3ccc4nc(NC(=O)C5CC5)sc4c3)cc12 [Compound 27] |  | 10 to 100 nM |
| CC(C)c1ccc(CNC(=O)c2c[nH]c3ccc(-c4ccc5nc(NC(=O)C6CC6)sc5c4)cc23)cc1 [Compound 28] | 100 to 1000 nM | ≥ 1000 nM |
| CC(C)(C)c1ccc(CNC(=O)c2c[nH]c3ccc(-c4ccc5nc(NC(=O)C6CC6)sc5c4)cc23)cc1 [Compound 29] | 100 to 1000 nM | 100 to 1000 nM |
| C[C@H](NC(=O)c1c[nH]c2ccc(-c3ccc(NC(=O)C4CC4)nc3)cc12)c1cccc(F)c1 [Compound 41] | 100 to 1000 nM | 100 to 1000 nM |
| C[C@H](NC(=O)c1c[nH]c2ccc(-c3ccc(NC(=O)C4CC4)cc3)cc12)c1cccc(F)c1 [Compound 42] | 100 to 1000 nM | ≥ 1000 nM |
| C[C@H](NC(=O)c1c[nH]c2ccc(-c3cnc(NC(=O)C4CC4)nc3)cc12)c1cccc(F)c1 [Compound 43] | ≥ 1000 nM | ≥ 1000 nM |
| C[C@H](NC(=O)c1c[nH]c2ccc(-c3ccc4nc(NC(=O)C5CC5)ncc4c3)cc12)c1cccc(F)c1 [Compound 44] | 100 to 1000 nM | 10 to 100 nM |
| C[C@H](NC(=O)c1c[nH]c2ccc(-c3ccc4nc(NC(=O)C5CC5)nn4c3)cc12)c1cccc(F)c1 [Compound 45] | 10 to 100 nM | 10 to 100 nM |
| C[C@H](NC(=O)c1cn(C)c2ccc(-c3ccc4nc(NC(=O)C5CC5)nn4c3)cc12)c1cccc(F)c1 [Compound 90] | 100 to 1000 nM |  |
| C[C@H](NC(=O)c1cn(C)c2ccc(-c3ccc4c(NC(=O)C5CC5)n[nH]c4c3)cc12)c1cccc(F)c1 [Compound 110] | < 1 nM |  |

Second part, led by results:

| IC50 (RIPK1) | Compound | EC50 (HT-29 cells) |
| --- | --- | --- |
| 10 to 100 nM | COc1ccc(CNC(=O)c2c[nH]c3ccc(-c4ccc5nc(NC(=O)C6CC6)sc5c4)cc23)cc1 [Compound 1] | 10 to 100 nM |
| 100 to 1000 nM | COc1cccc(CNC(=O)c2c[nH]c3ccc(-c4ccc5nc(NC(=O)C6CC6)sc5c4)cc23)c1 [Compound 12] | ≥ 1000 nM |
| 10 to 100 nM | Cc1cccc(CNC(=O)c2c[nH]c3ccc(-c4ccc5nc(NC(=O)C6CC6)sc5c4)cc23)c1 [Compound 15] | 10 to 100 nM |
| 100 to 1000 nM | O=C(NCc1cccc(Br)c1)c1c[nH]c2ccc(-c3ccc4nc(NC(=O)C5CC5)sc4c3)cc12 [Compound 23] | 1 to 10 nM |
| 10 to 100 nM | C[C@H](NC(=O)c1c[nH]c2ccc(-c3ccc4nc(NC(=O)C5CC5)sc4c3)cc12)c1ccc(F)cc1 [Compound 30] | < 1 nM |
| 100 to 1000 nM | C[C@@H](NC(=O)c1c[nH]c2ccc(-c3ccc4nc(NC(=O)C5CC5)sc4c3)cc12)c1ccc(F)cc1 [Compound 31] | 100 to 1000 nM |
| 10 to 100 nM | COc1ccc([C@@H](C)NC(=O)c2c[nH]c3ccc(-c4ccc5nc(NC(=O)C6CC6)sc5c4)cc23)cc1 [Compound 32] | 1 to 10 nM |
| 10 to 100 nM | COc1ccc([C@H](C)NC(=O)c2c[nH]c3ccc(-c4ccc5nc(NC(=O)C6CC6)sc5c4)cc23)cc1 [Compound 33] | < 1 nM |
| 100 to 1000 nM | C[C@@H](NC(=O)c1c[nH]c2ccc(-c3ccc4nc(NC(=O)C5CC5)sc4c3)cc12)c1cccc(F)c1 [Compound 35] | 10 to 100 nM |
| 100 to 1000 nM | C[C@@H](NC(=O)c1c[nH]c2ccc(-c3ccc4nc(NC(=O)C5CC5)sc4c3)cc12)c1cccc(Cl)c1 [Compound 36] | 100 to 1000 nM |
| 10 to 100 nM | C[C@H](NC(=O)c1c[nH]c2ccc(-c3ccc4nc(NC(=O)C5CC5)sc4c3)cc12)c1cccc(Cl)c1 [Compound 37] | 1 to 10 nM |
| 10 to 100 nM | COc1cccc([C@H](C)NC(=O)c2c[nH]c3ccc(-c4ccc5nc(NC(=O)C6CC6)sc5c4)cc23)c1 [Compound 38] | 1 to 10 nM |
| 100 to 1000 nM | COc1cccc([C@@H](C)NC(=O)c2c[nH]c3ccc(-c4ccc5nc(NC(=O)C6CC6)sc5c4)cc23)c1 [Compound 39] | 10 to 100 nM |
| 100 to 1000 nM | C[C@H](NC(=O)c1c[nH]c2ccc(-c3ccc4sc(NC(=O)C5CC5)nc4c3)cc12)c1cccc(F)c1 [Compound 40] | 10 to 100 nM |
| 10 to 100 nM | C[C@H](NC(=O)c1c[nH]c2ccc(-c3ccc4nc(NC(=O)C5CCC5)sc4c3)cc12)c1cccc(F)c1 [Compound 47] | 1 to 10 nM |
